The test system of this experiment is T1, human 26S proteasome AAA-ATPase heterohexamer (Rpt1-6) in the holoenzyme.
T1 construct: gene PSMC2; endogenous subunits in doubly capped 26S holoenzyme (28-subunit CP, 19-subunit RPs)
The experiment can be described thus: cryo-EM structure. The experiment is classed as binding. Particulars: 1 mM ATP-γ-S, 1 mM MgCl2, pH 7.5; Walker A nucleotide sites of Rpt subunits.

As for `Nc1ncnc2c1ncn2[C@@H]1O[C@H](COP(=O)(O)OP(=O)(O)OP(O)(O)=S)[C@@H](O)[C@H]1O` [ATP-γ-S], the cryo-EM structure entry is given as “ATP-γ-S was modeled into the nucleotide densities of four Rpt subunits in each state”.

The values are drawn from PMC5893597, “Structural mechanism for nucleotide-driven remodeling of the AAA-ATPase unfoldase in the activated human 26S proteasome” (Nature Communications, 2018).
